Test [1] concerns R848-induced TNFα production by human peripheral blood mononuclear cells (PBMCs). Nature of the test: R848 Induced TNFα in Human PBMC Assay. It is filed as cell-based.
Text: This protocol is for R848-induced TNFα production by human peripheral blood mononuclear cells (PBMCs). […] The assay is used to assess cell-based potency of small molecule inhibitors of IRAK4 in the absence of serum.
The PBMCs in the interphase layer were collected and washed with PBS via centrifugation multiple times until the supernatant is clear. The purified PBMCs were re-suspended in RPMI (Roswell Park Memorial Institute) media (Sigma-Aldrich).
For the assay, a compound dilution plate containing a top concentration of 4 mM compound in DMSO was serially diluted 4-fold for 11 times. 250 nL of the compound dilution plate was spotted into a 384-well, flat bottom with IId, TC-treated, black with clear bottom, sterile, polystyrene plate (Corning Life Sciences).
10 μL of anti-TNFα antibody labeled with MSD SULFO-TAG at 50 μg/mL was added to each well and allowed to incubate overnight at 4° C. […] The plates were then imaged on an MSD Sector Imager 6000.
Test [2] has as its system collagen-induced arthritis (hind paw volume). The test is described as follows: In Vivo Rat Collagen-Induced Arthritis Model. The following applies: Lewis rat. As to the method:
In Vivo Rat Collagen-Induced Arthritis Model.
Efficacy of IRAK4 compounds of the present invention was also evaluated in a rat in vivo model of rheumatoid arthritis (M. Hegen, J. C. Keith, Jr, M. Collins, C. L. Nickerson-Nutter, Ann. Rheum. Dis. 2008, 67, 1505-1515). An exemplary protocol for this in vivo model follows.
Female Lewis rats, approximately 7 weeks old, were immunized with an emulsion of type II collagen (CII) and incomplete Freund's adjuvant (IFA) on day 0 and received a boost of CII/IFA on day 7. Hind paw volume increase was taken by plethysmograph. Animals were randomly enrolled into treatment groups based on the development of disease. Beginning on day 11 post immunization, rats were enrolled into random treatment groups based on an increase in a single hind paw volume compared to day 7 post immunization baseline measurements.
Ten rats were enrolled per treatment group with the exception of the naive control group, which contained two rats. Day 0 was designated as the first treatment day, and paw measurements are taken daily by plethysmograph. The rats were weighed on a daily basis.
IRAK4 inhibitors are efficacious in the Lewis rat model of collagen-induced arthritis.

The target of test [3] is human IRAK4 FL (Full Length) (Homo sapiens (Human), UniProt Q9NWZ3). Nature of the test: IRAK4 Enzymatic DELFIA Assay, Protocol A. Format: biochemical. The following applies: 0.6 mM ATP.
[4] abbreviates: human PBMC, absence of serum, read-out: R848-induced TNFa PBMC IC50.
[5] abbreviates: Homo sapiens, PBMC, read-out: R848-induced TNFa PBMC IC50 (nM).

Read-outs that look alike come from different tables or passages of the source.

Chain of human IRAK4 FL (Full Length) (Q9NWZ3 whole entry): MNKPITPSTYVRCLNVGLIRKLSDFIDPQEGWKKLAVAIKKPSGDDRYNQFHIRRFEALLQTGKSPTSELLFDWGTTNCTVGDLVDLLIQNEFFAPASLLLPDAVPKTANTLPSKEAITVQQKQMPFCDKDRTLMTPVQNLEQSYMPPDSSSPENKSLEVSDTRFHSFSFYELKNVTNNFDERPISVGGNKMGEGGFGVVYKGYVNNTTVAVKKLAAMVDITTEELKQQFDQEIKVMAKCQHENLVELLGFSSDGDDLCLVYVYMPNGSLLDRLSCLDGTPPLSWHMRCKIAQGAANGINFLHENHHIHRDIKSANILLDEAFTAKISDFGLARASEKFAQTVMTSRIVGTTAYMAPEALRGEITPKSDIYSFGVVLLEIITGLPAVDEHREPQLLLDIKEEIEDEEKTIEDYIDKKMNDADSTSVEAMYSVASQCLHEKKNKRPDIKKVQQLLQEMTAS

Consider `COc1cc2c(OC[C@H]3NC(=O)[C@H]4C3[C@H]4CF)nccc2cc1C(N)=O` (stereo in doubt) [Example 303, 1-(((1S,2S,5S,6R)-6-(fluoromethyl)-4-oxo-3-azabicyclo[3.1.0]hexan-2-yl)methoxy)-7-methoxyisoquinoline-6-carboxamide], for which the IC50 in test [1] (setting [4]) stood at 6050 nM.
As for `Cc1ccc(-n2nc(C(C)(C)C)cc2NC(=O)Nc2ccc(OCCN3CCOCC3)c3ccccc23)cc1` [BIRB796, reference compound], the “days with significant reduction of hind paw swelling in CIA rats (t-test, p<0.05 vs. vehicle)” value in test [2] (30 mg/kg PO, QD, positive control (p38 inhibitor)) is reported as “Day 1-Day 8”.
As for `CC(C)Oc1cc2c(OC[C@@H]3CCC(=O)N3)nccc2cc1C(N)=O` [Example 26, 1-{[(2S)-5-oxopyrrolidin-2-yl]methoxy}-7-(propan-2-yloxy)isoquinoline-6-carboxamide], the “days with significant reduction of hind paw swelling in CIA rats (t-test, p<0.05 vs. vehicle)” value in test [2] (30 mg/kg PO, BID, therapeutic treatment for 8 days) is given as “Day 2-Day 8”; in test [2] (100 mg/kg PO, BID, therapeutic treatment for 8 days), “Day 1-Day 8 (end)”. Besides, the “hind paw swelling in CIA rats” value is “transiently significant reduction in hind paw swelling only on Day 5 and Day 6 post treatment” in test [2] (10 mg/kg PO, BID); “reduced the hind paw swelling in CIA rats significantly” in test [2] (therapeutic treatment BID daily for 8 days, t-test p<0.05 vs. vehicle).
As to `COc1cc2c(OC[C@@H]3C[C@@](F)(CC(F)(F)F)C(=O)N3)cccc2cc1C(N)=O` [Example 240, 5-{[(2S,4R)-4-fluoro-5-oxo-4-(2,2,2-trifluoroethyl)pyrrolidin-2-yl]methoxy}-3-methoxynaphthalene-2-carboxamide], the IC50 in test [3] was determined as 0.0023 µM.
Same read-out and setting: next, `COc1cc2c(OC[C@@H]3C[C@](F)(CC(F)(F)F)C(=O)N3)cccc2cc1C(N)=O` [Example 241, 5-{[(2S,4S)-4-fluoro-5-oxo-4-(2,2,2-trifluoroethyl)pyrrolidin-2-yl]methoxy}-3-methoxynaphthalene-2-carboxamide]: 0.161 µM.
On to `COc1cc2c(OC[C@H]3C[C@@H](F)C(=O)N3)nccc2cc1C(N)=O` [Example 275, 1-{[(2R,4R)-4-fluoro-5-oxopyrrolidin-2-yl]methoxy}-7-methoxyisoquinoline-6-carboxamide], for which the IC50 in test [1] (setting [5]) came to 5140 nM; in test [3], 0.119 µM.
In the case of `C[C@@H]1[C@H](F)C(=O)N[C@@H]1COc1nccc2cc(C(N)=O)c(OC3CC3)cc12` [Example 281, 7-(cyclopropyloxy)-1-{[(2S,3S,4S)-4-fluoro-3-methyl-5-oxopyrrolidin-2-yl]methoxy}isoquinoline-6-carboxamide], in test [1] (setting [5]), the half-maximal inhibitory concentration (IC50) was found to be 127 nM.
For `COc1cc2c(OC[C@H]3NC(=O)[C@@H]4[C@@H](CF)[C@@H]43)nccc2cc1C(N)=O` [Example 304, 1-{[(1R,2S,5S)-6-(fluoromethyl)-4-oxo-3-azabicyclo[3.1.0]hex-2-yl]methoxy}-7-methoxyisoquinoline-6-carboxamide], the IC50 in test [1] (setting [4]) was 35 nM.

Broadly, the IC50 is the midpoint of a concentration-inhibition curve.

Source of the values: US10793579B2, “Bicyclic-fused heteroaryl or aryl compounds” (Pfizer Inc., priority 2014, dated 2020).
